A value given as a limit tells only on which side of the number the result lay.

Experiment [1] deals with Human sodium/glucose co-transporter type 1 (SGLT1) (Homo sapiens (Human), UniProt P13866). The experiment can be described thus: In vitro human SGLT1 inhibition assay (14C-AMG uptake). The class given is cell-based. On the set-up: key to SGLT1 (human SGLT1 IC50): ***: a value less than 0.01 μM; **: a value less than 0.1 μM; *: a value less than 1 μM; —: a value not measured or exceeding μM. The note with it: HEK293 cells expressing human HA-SGLT1, 14C-AMG uptake. How it is done:
Human sodium/glucose co-transporter type 1 (SGLT1; accession number NP_000334; GI: 4507031) was cloned into pIRESpuro2 vector for mammalian expression (construct: HA-SGLT1-pIRESpuro2).
HEK293 cells were transfected with the human HA-SGLT1-pIRESpuro2 vector and the bulk stable cell line was selected in presence of 0.5 μg/mL of puromycin. Human HA-SGLT1 cells were maintained in DMEM media containing 10% FBS, 1% GPS and 0.5 μg/mL of puromycin.
The HEK293 cells expressing the human HA-SGLT1 were seeded in 384 well plates (30,000 cells/well) in DMEM media containing 10% FBS, 1% GPS and 0.5 μg/mL of puromycin, then incubated overnight at 37 C, 5% CO2. Cells were then washed with uptake buffer (140 mM NaCl, 2 mM KCl, 1 mM CaCl2, 1 mM MgCl2, 10 mM HEPES, 5 mM Tris, 1 mg/mL bovine serum albumin (BSA), pH 7.3). Twenty microliters of uptake buffer with or without testing compounds were added to the cells. Then, 20 microliters of uptake buffer containing ^14C-AMG (100 nCi) were also added to cells. The cell plates were incubated at 37° C., 5% CO2 for 1-2 hours. After washing the cells with uptake buffer, scintillation fluid was added (40 microliters/well) and ^14C-AMG uptake was measured by counting radioactivity using a scintillation coulter (TopCoulter NXT; Packard Instruments).

The target in experiment [2] is Human sodium/glucose co-transporter type 2 (SGLT2) (Homo sapiens (Human), UniProt P31639). Put plainly: In vitro human SGLT2 inhibition assay (14C-AMG uptake). The class given is cell-based. The settings on record: HEK293 cells expressing human HA-SGLT2, 14C-AMG uptake. The protocol:
Human sodium/glucose co-transporter type 2 (SGLT2; accession number P31639; GI:400337) was cloned into pIRESpuro2 vector for mammalian expression (construct: HA-SGLT2-pIRESpuro2).
HEK293 cells were transfected with the human HA-SGLT2-pIRESpuro2 vector and the bulk stable cell line was selected in presence of 0.5 μg/mL of puromycin. Human HA-SGLT2 cells were maintained in DMEM media containing 10% FBS, 1% GPS and 0.5 μg/mL of puromycin.
The HEK293 cells expressing the human HA-SGLT2 were seeded in 384 well plates (30,000 cells/well) in DMEM media containing 10% FBS, 1% GPS and 0.5 μg/mL of puromycin, then incubated overnight at 37 C, 5% CO2. Cells were then washed with uptake buffer (140 mM NaCl, 2 mM KCl, 1 mM CaCl2, 1 mM MgCl2, 10 mM HEPES, 5 mM Tris, 1 mg/mL bovine serum albumin (BSA), pH 7.3). Twenty microliters of uptake buffer with or without testing compounds were added to the cells. Then, 20 microliters of uptake buffer containing ^14C-AMG (100 nCi) were added to the cells. The cell plates were incubated at 37° C., 5% CO2 for 1-2 hours. After washing the cells with uptake buffer, scintillation fluid was added (40 microliters/well) and ^14C-AMG uptake was measured by counting radioactivity using a scintillation coulter (TopCoulter NXT; Packard Instruments).

Chain of Human sodium/glucose co-transporter type 2 (SGLT2) (P31639 whole entry): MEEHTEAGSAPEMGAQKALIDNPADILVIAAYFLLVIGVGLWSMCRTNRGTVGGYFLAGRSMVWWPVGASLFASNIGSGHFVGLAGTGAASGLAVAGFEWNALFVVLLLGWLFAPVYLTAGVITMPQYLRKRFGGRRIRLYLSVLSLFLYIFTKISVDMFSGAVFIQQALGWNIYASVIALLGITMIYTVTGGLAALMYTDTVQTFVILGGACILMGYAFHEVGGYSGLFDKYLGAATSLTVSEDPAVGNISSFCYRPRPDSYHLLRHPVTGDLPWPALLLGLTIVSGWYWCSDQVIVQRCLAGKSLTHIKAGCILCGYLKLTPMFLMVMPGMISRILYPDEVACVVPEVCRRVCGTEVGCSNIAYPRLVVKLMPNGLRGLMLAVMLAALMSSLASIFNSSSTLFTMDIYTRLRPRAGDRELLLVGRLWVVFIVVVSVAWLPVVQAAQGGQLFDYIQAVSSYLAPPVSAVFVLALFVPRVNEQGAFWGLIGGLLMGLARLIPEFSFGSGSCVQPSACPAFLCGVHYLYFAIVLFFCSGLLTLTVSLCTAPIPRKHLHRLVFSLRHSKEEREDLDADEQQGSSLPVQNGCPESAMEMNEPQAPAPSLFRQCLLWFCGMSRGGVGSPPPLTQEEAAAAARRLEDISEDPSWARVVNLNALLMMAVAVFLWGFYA
Chain of Human sodium/glucose co-transporter type 1 (SGLT1) (P13866 whole entry): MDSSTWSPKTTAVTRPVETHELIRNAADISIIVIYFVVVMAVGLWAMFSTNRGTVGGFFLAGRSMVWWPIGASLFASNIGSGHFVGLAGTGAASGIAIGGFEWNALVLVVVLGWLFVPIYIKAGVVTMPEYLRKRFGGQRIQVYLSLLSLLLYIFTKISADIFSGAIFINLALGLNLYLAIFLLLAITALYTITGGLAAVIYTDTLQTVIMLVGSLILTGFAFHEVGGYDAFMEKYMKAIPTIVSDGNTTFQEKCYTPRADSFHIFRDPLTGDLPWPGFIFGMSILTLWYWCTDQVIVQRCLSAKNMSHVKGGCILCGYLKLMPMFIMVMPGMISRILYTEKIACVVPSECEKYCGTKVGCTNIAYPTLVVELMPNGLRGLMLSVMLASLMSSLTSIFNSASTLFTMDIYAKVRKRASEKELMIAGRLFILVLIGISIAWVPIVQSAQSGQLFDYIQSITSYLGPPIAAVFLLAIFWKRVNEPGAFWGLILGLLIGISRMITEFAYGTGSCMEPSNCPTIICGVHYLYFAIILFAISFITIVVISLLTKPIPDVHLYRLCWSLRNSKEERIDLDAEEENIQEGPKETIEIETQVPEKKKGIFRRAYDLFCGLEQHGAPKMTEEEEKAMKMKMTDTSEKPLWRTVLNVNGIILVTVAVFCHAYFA

By IC50 is commonly meant the concentration at which inhibition is half-maximal. For `CS[C@H]1O[C@@H](c2ccc(C)c(Cc3ccc(CCCCNC(C)(C)C(=O)N4CCN(C)CC4)cc3)c2)[C@H](O)[C@@H](O)[C@@H]1O` [2-methyl-2-((4-(4-(2-methyl-5-((2S,3R,4R,5S,6R)-3,4,5-trihydroxy-6-(methylthio)tetrahydro-2H-pyran-2-yl)benzyl)phenyl)butyl)amino)-1-(4-methylpiperazin-1-yl)propan-1-one], the IC50 in experiment [1] and in experiment [2] was less than 10 nM each time.

With `CS[C@H]1O[C@@H](c2ccc(C)c(Cc3ccc(CCCCNC(=O)C(C)(C)CO)cc3)c2)[C@H](O)[C@@H](O)[C@@H]1O` [3-hydroxy-2,2-dimethyl-N-(4-(4-(2-methyl-5-((2S,3R,4R,5S,6R)-3,4,5-trihydroxy-6-(methylthio)tetrahydro-2H-pyran-2-yl)benzyl)phenyl)butyl)propanamide], the IC50 in experiment [1] and in experiment [2] was less than 10 nM throughout.

Regarding `CS[C@H]1O[C@@H](c2ccc(Cl)c(Cc3ccc(OCCCC(=O)N(CCO)CCO)cc3)c2)[C@H](O)[C@@H](O)[C@@H]1O` [4-(4-(2-chloro-5-((2S,3R,4R,5S,6R)-3,4,5-trihydroxy-6-(methylthio)tetrahydro-2H-pyran-2-yl)benzyl)phenoxy)-N,N-bis(2-hydroxyethyl)butanamide], the results for the IC50 in experiment [1] and in experiment [2] were less than 100 nM and less than 10 nM, respectively.

Consider `CCN(CC)C(=O)CCCOc1ccc(Cc2cc([C@@H]3O[C@H](SC)[C@@H](O)[C@H](O)[C@H]3O)ccc2Cl)cc1` [4-(4-(2-chloro-5-((2S,3R,4R,5S,6R)-3,4,5-trihydroxy-6-(methylthio)tetrahydro-2H-pyran-2-yl)benzyl)phenoxy)-N,N-diethylbutanamide], for which the IC50 in experiment [1] is less than 100 nM; in experiment [2], less than 10 nM.

On to `CS[C@H]1O[C@@H](c2ccc(Cl)c(Cc3ccc(OCCCC(=O)NC(CO)(CO)CO)cc3)c2)[C@H](O)[C@@H](O)[C@@H]1O` [4-(4-(2-chloro-5-((2S,3R,4R,5S,6R)-3,4,5-trihydroxy-6-(methylthio)tetrahydro-2H-pyran-2-yl)benzyl)phenoxy)-N-(1,3-dihydroxy-2-(hydroxymethyl)propan-2-yl)butanamide], for which the values for the IC50 in experiment [1] and in experiment [2] were less than 100 nM and less than 10 nM, respectively.

Consider `CS[C@H]1O[C@@H](c2ccc(Cl)c(Cc3ccc(OCCCC(=O)N(C)C(C)(C)CO)cc3)c2)[C@H](O)[C@@H](O)[C@@H]1O` [4-(4-(2-chloro-5-((2S,3R,4R,5S,6R)-3,4,5-trihydroxy-6-(methylthio)tetrahydro-2H-pyran-2-yl)benzyl)phenoxy)-N-(1-hydroxy-2-methylpropan-2-yl)-N-methylbutanamide], for which the values for the IC50 in experiment [1] and in experiment [2] were less than 100 nM and less than 10 nM, respectively.

`CS[C@H]1O[C@@H](c2ccc(Cl)c(Cc3ccc(OCCCC(=O)NC(C)(C)CO)cc3)c2)[C@H](O)[C@@H](O)[C@@H]1O` [4-(4-(2-chloro-5-((2S,3R,4R,5S,6R)-3,4,5-trihydroxy-6-(methylthio)tetrahydro-2H-pyran-2-yl)benzyl)phenoxy)-N-(1-hydroxy-2-methylpropan-2-yl)butanamide]: the IC50 in experiment [1] and in experiment [2] was less than 10 nM each time.

Regarding `CS[C@H]1O[C@@H](c2ccc(Cl)c(Cc3ccc(OCCCC(=O)NC4CCCCC4N4CCOCC4)cc3)c2)[C@H](O)[C@@H](O)[C@@H]1O` (stereo partly drawn) [4-(4-(2-chloro-5-((2S,3R,4R,5S,6R)-3,4,5-trihydroxy-6-(methylthio)tetrahydro-2H-pyran-2-yl)benzyl)phenoxy)-N-(2-morpholinocyclohexyl)butanamide], the values for the concentration for half-maximal inhibition (IC50) in experiment [1] and in experiment [2] were less than 100 nM and less than 10 nM, respectively.

With `CCNC(=O)CCCOc1ccc(Cc2cc([C@@H]3O[C@H](SC)[C@@H](O)[C@H](O)[C@H]3O)ccc2Cl)cc1` [4-(4-(2-chloro-5-((2S,3R,4R,5S,6R)-3,4,5-trihydroxy-6-(methylthio)tetrahydro-2H-pyran-2-yl)benzyl)phenoxy)-N-ethylbutanamide], the IC50 in experiment [1] was less than 100 nM; in experiment [2], less than 10 nM.

On to `CS[C@H]1O[C@@H](c2ccc(Cl)c(Cc3ccc(OCCCC(=O)O)cc3)c2)[C@H](O)[C@@H](O)[C@@H]1O` [4-(4-(2-chloro-5-((2S,3R,4R,5S,6R)-3,4,5-trihydroxy-6-(methylthio)tetrahydro-2H-pyran-2-yl)benzyl)phenoxy)butanoic acid], for which the figures for the IC50 in experiment [1] and in experiment [2] were less than 1000 nM and less than 10 nM, respectively.

For the compound `CS[C@H]1O[C@@H](c2ccc(C)c(Cc3ccc(OCCCC(=O)N4CCN(C)CC4)cc3)c2)[C@H](O)[C@@H](O)[C@@H]1O` [4-(4-(2-methyl-5-((2S,3R,4R,5S,6R)-3,4,5-trihydroxy-6-(methylthio)tetrahydro-2H-pyran-2-yl)benzyl)phenoxy)-1-(4-methylpiperazin-1-yl)butan-1-one], the IC50 in experiment [1] is less than 100 nM; in experiment [2], less than 10 nM.

For the compound `CS[C@H]1O[C@@H](c2ccc(C)c(Cc3ccc(OCCCC(=O)NC4(C(=O)N5CCN(C)CC5)CCCC4)cc3)c2)[C@H](O)[C@@H](O)[C@@H]1O` [4-(4-(2-methyl-5-((2S,3R,4R,5S,6R)-3,4,5-trihydroxy-6-(methylthio)tetrahydro-2H-pyran-2-yl)benzyl)phenoxy)-N-(1-(4-methylpiperazine-1-carbonyl)cyclopentyl)butanamide], the IC50 in experiment [1] and in experiment [2] was less than 10 nM throughout.

For `CS[C@H]1O[C@@H](c2ccc(C)c(Cc3ccc(OCCCC(N)=O)cc3)c2)[C@H](O)[C@@H](O)[C@@H]1O` [4-(4-(2-methyl-5-((2S,3R,4R,5S,6R)-3,4,5-trihydroxy-6-(methylthio)tetrahydro-2H-pyran-2-yl)benzyl)phenoxy)butanamide], the IC50 in experiment [1] was less than 100 nM; in experiment [2] it was less than 10 nM.

As for `CS[C@H]1O[C@@H](c2ccc(C)c(Cc3ccc(OCCCC(=O)O)cc3)c2)[C@H](O)[C@@H](O)[C@@H]1O` [4-(4-(2-methyl-5-((2S,3R,4R,5S,6R)-3,4,5-trihydroxy-6-(methylthio)tetrahydro-2H-pyran-2-yl)benzyl)phenoxy)butanoic acid], in experiment [1], the “SGLT1 (human SGLT1 IC50)” value was “—”. The same compound showed an IC50 in experiment [2] of less than 100 nM.

As for `CS[C@H]1O[C@@H](c2ccc(C)c(Cc3ccc(CCCC(=O)N4CCN(C)CC4)cc3)c2)[C@H](O)[C@@H](O)[C@@H]1O` [4-(4-(2-methyl-5-((2S,3R,4R,5S,6R)-3,4,5-trihydroxy-6-(methylthio)tetrahydro-2H-pyran-2-yl)benzyl)phenyl)-1-(4-methylpiperazin-1-yl)butan-1-one], the figures for the IC50 in experiment [1] and in experiment [2] were less than 100 nM and less than 10 nM, respectively.

For the compound `CS[C@H]1O[C@@H](c2ccc(C)c(Cc3ccc(CCCC(=O)NC4(C(=O)N5CCN(C)CC5)CCCC4)cc3)c2)[C@H](O)[C@@H](O)[C@@H]1O` [4-(4-(2-methyl-5-((2S,3R,4R,5S,6R)-3,4,5-trihydroxy-6-(methylthio)tetrahydro-2H-pyran-2-yl)benzyl)phenyl)-N-(1-(4-methylpiperazine-1-carbonyl)cyclopentyl)butanamide], the IC50 in experiment [1] and in experiment [2] was less than 10 nM in each case.

For `CS[C@H]1O[C@@H](c2ccc(C)c(Cc3ccc(CCCC(=O)NC4(C(=O)N5CCN(C)CC5)CC4)cc3)c2)[C@H](O)[C@@H](O)[C@@H]1O` [4-(4-(2-methyl-5-((2S,3R,4R,5S,6R)-3,4,5-trihydroxy-6-(methylthio)tetrahydro-2H-pyran-2-yl)benzyl)phenyl)-N-(1-(4-methylpiperazine-1-carbonyl)cyclopropyl)butanamide], the IC50 in experiment [1] and in experiment [2] was less than 10 nM each time.

Turning to `CS[C@H]1O[C@@H](c2ccc(C)c(Cc3ccc(CCCC(=O)NCC(=O)N4CCN(C)CC4)cc3)c2)[C@H](O)[C@@H](O)[C@@H]1O` [4-(4-(2-methyl-5-((2S,3R,4R,5S,6R)-3,4,5-trihydroxy-6-(methylthio)tetrahydro-2H-pyran-2-yl)benzyl)phenyl)-N-(2-(4-methylpiperazin-1-yl)-2-oxoethyl)butanamide], the IC50 in experiment [1] and in experiment [2] was less than 10 nM each time.

For the origin of these results see patent publication US9688710B2, “Inhibitors of sodium glucose cotransporter 1” (LEXICON PHARMACEUTICALS, INC., priority 2012, dated 2017).
